Results from patent US5606037A, “Processes antineoplastic heteronaphthoquinones” (BioChem Pharma Inc., priority 1995, dated 1997).
pIC50: −log10 of the molar value. Counter-ions that a name gives are not always drawn.

What was measured:
Type in all cases: cell-based, Human
[1] = system: SKOV3 (Ovarian adenocarcinoma); assay: In vitro cytotoxicity, microculture tetrazolium (MTT) assay, SKOV3; details: Homo sapiens, SK-OV-3; SKOV3 ovarian adenocarcinoma; 48 h with compound, further 48 h, MTT; Table 1
Procedure: (§1) The microculture tetrazolium assay was used to test in vitro cytotoxicity. This assay is described in Plumb, J. A. et al., 1989 Cancer Research 49, 4435-4440, which is herein incorporated by reference. The cytotoxicity of compounds towards tumor cells is measured in vitro using the assay. This assay method is based upon the ability of live, but not dead cells to reduce the yellow water soluble dye 3-(4,5-dimethylthiazol-2-yl)-2,5-diphenyltetrazolium bromide (MTT) to its water insoluble purple formazan product.
(§2) Human Tumor Cell lines, used were:
SKOV3 (Ovarian adenocarcinoma)--provided by Dr. V. Ling, Ontario Cancer Institute.
(§3) The cells were maintained in exponential growth in culture in minimal essential media (MEM) supplemented with non-essential amino acids, and containing 15% (v/v) fetal. bovine serum, 5 mM L-glutamine, 1 mM sodium pyruvate, and 0.1 U/ml insulin. All cell lines were grown at 37° C. in an atmosphere of 5% CO2 in air.
(§4) MTT: 2 mg/ml in phosphate buffered saline (stable at 4° C. in dark for 1 week).
(§5) Sorensen's buffer: 0.1M glycine/NaOH, pH 10.5, containing 0.1M NaCl.
(§6) Test compounds: 20 mM in DMSO and diluted to a final concentration of 200 μM in culture medium before use.
(§7) For each assay, doxorubicin is included as an inter-assay standard. This allows us to monitor the behaviour of the assay in general, and in particular, to check that the SKVLB line has maintained its resistant phenotype.
(§8) The assays are carried out in 96-well (8 well×12 well) microtiter plates. Serial dilutions of the compound are tested along the length of the plate. A 1:3 serial dilution of compound in culture medium covers a concentration range from 100 μM to 1.7 nM. Each concentration of compound is tested in quadruplet, allowing two compounds to be tested per plate. Wells containing no cells (blank) and cells with no test compound (control) are included on each plate.
(§9) Cells are plated out in 100 μl of culture medium in the microtiter plates at a density of around 1,500-4,000 cells per well. The plates are incubated overnight to allow the cells to become adherent after which the test compound is added (100 μl of appropriate dilution per well). The cells are incubated with test compound at 37° C. for 48 h after which the compound is replaced with fresh medium. After a further 48 h incubation at 37° C., 50 μl of MTT solution (2 mg/ml) is added to each well. The plates are incubated in the dark for 4 h at 37° C. after which the medium is removed. The MTT formazan product is extracted from the cells by the addition of 200 μl DMSO followed by 50 μl of Sorensen's buffer. The plates are shaken briefly and the absorbance at 570 nm is read using a Molecular Devices UV max plate reader. Curves are fit to the MTT assay data using a four parameter logistic equation, and the data are normalized to fit a 0% to 100% survival scale.

[2] = system: SKVLB (Ovarian; multidrug resistant); assay: In vitro cytotoxicity, microculture tetrazolium (MTT) assay, SKVLB; details: Homo sapiens; SKVLB multidrug resistant ovarian; 48 h with compound, further 48 h, MTT; Table 1
Procedure: as §1, §2
SKVLB (Ovarian; multidrug resistant)--Dr. V. Ling, Ontario Cancer Institute.
as §3, §4, §5, §6, §7, §8, §9

[3] = system: T47D (Ductal carcinoma of breast); assay: In vitro cytotoxicity, microculture tetrazolium (MTT) assay, T47D; details: Homo sapiens, 48 h with compound, further 48 h, Table 1
Procedure: as §1, §2
T47D (Ductal carcinoma of breast)--ATCC catalog #HTB-133.
as §3, §4, §5, §6, §7, §8, §9

Lox (Melanoma) = assay: In vitro cytotoxicity, microculture tetrazolium (MTT) assay, LOX; details: Homo sapiens, 48 h with compound, further 48 h, Table 1
Procedure: as §1, §2
Lox (Melanoma)--Southern Research Institute.
as §3, §4, §5, §6, §7, §8, §9

[4] = system: HT 29 (Colon adenocarcinoma); assay: In vitro cytotoxicity, microculture tetrazolium (MTT) assay, HT29; details: Homo sapiens, HT-29, 48 h with compound, further 48 h, Table 1
Procedure: as §1, §2
HT 29 (Colon adenocarcinoma) ATCC catalog #HTB-38.
as §3, §4, §5, §6, §7, §8, §9

Row | Structure (SMILES) | pIC50 [1] | pIC50 [2] | pIC50 [3] | pIC50 (Lox (Melanoma)) | pIC50 [4]
1 | COC(=O)[C@]1(C)CC2=C(C(=O)c3ccccc3C2=O)[C@@H](O[C@H]2C[C@H](NC(=O)C(F)(F)F)[C@H](O)[C@H](C)O2)O1 [BCH2077, (1'S, 1R, 3S)-1-(3-trifluoroacetamido-2',3',6'-trideoxy-L-lyxohexopyranose)-3-methoxycarbonyl-3-methyl-3,4,5,10-tetrahydro-5,10-dioxo-1H-naphtho-[2,3-c]pyran] | 5.71 | 4.68 | 5.11 | 5.72 | 5.47
2 | CC[C@H]1CC2=C(C(=O)c3ccccc3C2=O)[C@H](O[C@H]2C[C@H](N)[C@H](O)[C@H](C)O2)O1 [BCH2021, (1'S,1S,3S)-5,10-dioxo-3-ethyl-1-(2',3',6'-trideoxy-3'-amino-L-lyxohexopyranose)-3,4,5,10-tetrahydro-1H-naphtho-[2,3-c]-pyran hydrochloride] | 4.91 | 4.33 | 4.72 | 4.97 | 4.42
3 | CC(=O)[C@@H]1CC2=C(C(=O)c3ccc(O)cc3C2=O)[C@@H](O[C@H]2C[C@H](NC(=O)C(F)(F)F)[C@H](O)[C@H](C)O2)O1 [BCH1181, (1'S,1R,3S)-Methyl (5,10-dioxo-1-(2',3',6'-trideoxy-3'-trifluoroacetamido-L-lyxohexopyranose)-7-hydroxy-3,4,5, 10-tetrahydro[2,3-C]pyran-3-yl) ketone] | 5.65 | 5.07 | 5.03 | 5.51 | 6.27
4 | CC(=O)[C@@H]1CC2=C(C(=O)c3ccccc3C2=O)[C@@H](O[C@@H]2O[C@@H](C)[C@@H](O)[C@@H](O)[C@H]2I)O1 [BCH2015, (1'S,1R,3S)-methyl-(1-[2',6'-dideoxy-3',4'-dihydroxy-2'-iodo-L-lyxohexopyranose]-5,10-dioxo-3,4,5,10-tetrahydronaphtho[2,3-c]-pyran-3-yl) ketone] | 6.44 | 5.93 | 6.04 | 5.96 | 6.25
5 | CC(=O)C1CC2=C(C(=O)c3ccccc3C2=O)C(O)O1 (centres unmarked) [BCH1148, Methyl (1-hydroxy-5,10-dioxo-3,4,5,10-tetrahydronaphtho [2,3-C]pyran-3-yl) ketone] | < 4.00 | < 4.00 | < 4.00 | < 4.00 | < 4.00
6 | CC(=O)C1CC2=C(C(=O)c3ccccc3C2=O)C(OCC2CCCN(C(=O)OC(C)(C)C)C2)O1 (mixture of isomers) [BCH2060, Methyl-(1-O-[N-BOC-3-piperidinemethanol]-5,6-dioxo-3,4,5,10-tetrahydronaphthaleno-[2,3-c]pyran-3-yl) ketone] | 5.94 | 5.60 | 6.25 | 5.71 | 6.59
7 | Nc1nc(C2CC3=C(CO2)C(=O)c2ccccc2C3=O)cs1 (centres unmarked) [BCH1189] | 5.19 | 4.58 | 4.90 | 4.84 | 4.78
8 | COC(=O)[C@@H](N)COC1OC(C(C)=O)CC2=C1C(=O)c1ccccc1C2=O (mixture of isomers) [BCH1654, (1S, 2'S, 3R) and (1R, 2'S, 3S)-methyl-(1-[O-serinemethyl ester]-5,10-dioxo-3,4,5,10-tetrahydronaphtaleno[2,3-C]pyran-3-yl) ketone hydrochloride] | 6.15 | 5.43 | 5.80 | 5.92 | 5.45
9 | COC(=O)[C@]1(C)CC2=C(C(=O)c3ccccc3C2=O)[C@H](O[C@H]2C[C@H](NC(=O)C(F)(F)F)[C@H](O)[C@H](C)O2)O1 [BCH2081, (1'S, 1S, 3S)-1-(3'-trifluoroacetamido-2',3',6'-trideoxy-lyxohexopyranose)-3-methoxycarbonyl-3-methyl-5,10-dioxo-4,5,10-trihydro-1H-naphtho-[2,3-c]-pyran] | 5.89 | 4.72 | 5.13 | 5.57 | 5.42
10 | C[C@@H]1O[C@@H](O[C@H]2O[C@H](COc3ccccc3)CC3=C2C(=O)c2ccccc2C3=O)C[C@H](NC(=O)C(F)(F)F)[C@@H]1O [BCH2032, (1'S, 1R, 3S)-5,10-dioxo-3-phenyloxymethyl-1-(2',3',6'-trideoxy-3'-trifluoroacetamido-L-lyxohexopyranose)-3,4,5,10-tetrahydro-1H-naphtho-[2,3-c]pyran] | 4.92 to 5.22 | 4.55 to 4.75 | 4.64 to 4.80 | 5.29 to 5.55 | 5.03 to 5.07
11 | CC[C@H]1CO[C@H](O[C@H]2C[C@H](NC(=O)C(F)(F)F)[C@H](O)[C@H](C)O2)C2=C1C(=O)c1ccccc1C2=O [BCH2091, (1'S, 1R, 4R)-5,10-dioxo-4-ethyl-1-(2',3',6'-trideoxy-3'-trifluoroacetamido-L-lyxohexopyranose)-3,4,5,10-tetrahydro-1H-naphtho-[2,3-c]pyran] | 4.87 | 4.49 | 4.80 | 5.48 | 4.95
12 | CO[C@H]1C[C@H](O[C@H]2O[C@H](C(C)=O)CC3=C2C(=O)c2ccccc2C3=O)O[C@@H](C)[C@H]1OS(C)(=O)=O [BCH2070, (1'-S, 1-R, 3-S)-methyl-(1-[2',3',4',6' tetradeoxy-3'-methoxy-4'-O-methanesulfonyl-L-lyxohexopyranose)-5,10-dioxo-3,4,5,10 tetrahydronaphtho-[2,3-c]pyran-3-yl) ketone] | 8.08 | 6.92 | 7.74 | 7.82 | 6.27 to 8.22
13 | CC(=O)C1CC2=C(C(=O)c3ccccc3C2=O)C(OCC2CCCNC2)O1 (mixture of isomers) [BCH2061, Methyl-(1-O-[3-piperidinemethanol]-5,10-dioxo-3,4,5,10-tetrahydronaphthaleno-[2,3-c]pyran-3-yl) ketone hydrochloride salt] | 8.08 | 6.85 | 6.57 | 7.35 | 7.27
14 | CC(=O)[C@H]1CC2=C(C(=O)c3ccccc3C2=O)[C@H](O[C@@H]2O[C@@H](C)[C@@H](O)[C@@H](O)[C@H]2I)O1 [BCH2014, (1'S,1S,3R)-methyl-(1-[2',6'-dideoxy-3',4'-dihydroxy-2'-iodo-L-lyxohexopyranose]-5,10-dioxo-3,4,5,10-tetrahydronaphtho[2,3-c]-pyran-3-yl)-ketone] | 4.67 | 4.40 | 4.21 | 4.44 | 4.21
15 | CC(=O)C1CC2=C(CO1)C(=O)c1ccccc1C2=O (centres unmarked) [BCH1125, Methyl (5,10-dioxo-3,4,5,10-tetrahydronaphtho [2,3-C]pyran-3-yl) ketone] | < 4.00 | 4.03 | 4.44 | 4.28 | < 4.00
16 | COC(=O)[C@@]1(C)CC2=C(C(=O)c3ccccc3C2=O)[C@H](O[C@H]2C[C@H](NC(=O)C(F)(F)F)[C@H](O)[C@H](C)O2)O1 [BCH2076, (1'S,1S,3R)-1-(3'-trifluoroacetamido-2',3',6'-trideoxy-lyxo-L-hexopyranose)-3-methoxycarbonyl-3-methyl-3,4,5,10-tetrahydro-5,10-dioxo-naphtho-[2,3-c]pyran] | 5.84 | 4.91 | 5.19 | 5.74 | 5.59
